Laboratory results as given in PubChem BioAssay (NCI).
Several values for one entry are separate records, joined by “and”; a condition that tells them apart may be missing. Equal entries are not always repeated.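 Growth conditions: 96-well plates. Treatment: test compound, 48 hours, 5 concentrations. Analysis: linear interpolation between bracketing concentrations; unreached endpoints set to highest concentration. GI50: concentration for 50% inhibition of growth. The concentration for full growth arrest is given as TGI.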

Columns and labels:
Experiment in all cases: DTP human tumour cell line panel, 48 h
COLO 205 colon = system: COLO 205 colon
NCI-H226 lung = system: NCI-H226 lung
A498 renal = system: A498 renal
SW-620 colon = system: SW-620 colon
EKVX NSCLC = system: EKVX NSCLC
MDA-MB-231 breast = system: MDA-MB-231 breast
SNB-75 CNS = system: SNB-75 CNS
SN12C renal = system: SN12C renal
OVCAR-3 ovarian = system: OVCAR-3 ovarian
DU-145 prostate = system: DU-145 prostate

O=C(Nn1c2c(sc1=NC1CC1)C(=O)c1ccccc1C2=O)c1cc2ccc1CCc1ccc(cc1)CC2
GI50 (COLO 205 colon): 3.36 µM
TGI (COLO 205 colon): 12.7 µM
GI50 (NCI-H226 lung): 1.81 µM
TGI (NCI-H226 lung): 5.83 µM
GI50 (A498 renal): 20.7 µM
TGI (A498 renal): 63.4 µM
GI50 (SW-620 colon): 1.92 µM
TGI (SW-620 colon): 4.32 µM
GI50 (EKVX NSCLC): 1.87 µM
TGI (EKVX NSCLC): 12.5 µM
GI50 (MDA-MB-231 breast): 1.37 µM
TGI (MDA-MB-231 breast): 9.82 µM
GI50 (SNB-75 CNS): 1.32 µM
TGI (SNB-75 CNS): 6.04 µM
GI50 (SN12C renal): 1.34 µM
TGI (SN12C renal): 2.61 µM
GI50 (OVCAR-3 ovarian): 1.53 µM
TGI (OVCAR-3 ovarian): 4.42 µM
GI50 (DU-145 prostate): 1.85 µM
TGI (DU-145 prostate): 3.43 µM

CCCCCC/C=C\CCCCCCCCCc1c(O)c(OC)cc(O)c1CN(C)C
TGI (COLO 205 colon): 4.43 µM
TGI (NCI-H226 lung): 36.7 µM
TGI (A498 renal): 33.4 µM
TGI (SW-620 colon): > 100 µM
TGI (EKVX NSCLC): 23.6 µM
TGI (MDA-MB-231 breast): 31.6 µM
TGI (SNB-75 CNS): 13.8 µM
TGI (SN12C renal): 20.7 µM
TGI (OVCAR-3 ovarian): 19 µM
TGI (DU-145 prostate): 36 µM

c1cc(-c2cnn3nc(N4CCOCC4)ccc23)nc(NC2CC2)n1
GI50 (COLO 205 colon): 8.06 µM
TGI (COLO 205 colon): > 23.5 µM
GI50 (NCI-H226 lung): 5.59 µM
TGI (NCI-H226 lung): > 25 µM
GI50 (A498 renal): 5.66 µM
TGI (A498 renal): 16.6 µM
GI50 (SW-620 colon): 8.9 µM
TGI (SW-620 colon): > 25 µM
GI50 (EKVX NSCLC): 10.5 µM
TGI (EKVX NSCLC): > 25 µM
GI50 (MDA-MB-231 breast): 10.2 µM
TGI (MDA-MB-231 breast): > 25 µM
GI50 (SNB-75 CNS): 5.99 µM
TGI (SNB-75 CNS): 18.6 µM
GI50 (SN12C renal): 8.83 µM
TGI (SN12C renal): > 25 µM
GI50 (OVCAR-3 ovarian): 8.17 µM
TGI (OVCAR-3 ovarian): > 25 µM
GI50 (DU-145 prostate): 8.66 µM
TGI (DU-145 prostate): > 25 µM

Oc1oc(-c2ccccc2)nc1/C=C1/C=NN=N1
TGI (COLO 205 colon): > 100 µM
TGI (NCI-H226 lung): > 100 µM
TGI (A498 renal): > 100 µM
TGI (SW-620 colon): > 100 µM
TGI (EKVX NSCLC): > 100 µM
TGI (MDA-MB-231 breast): > 100 µM
TGI (SNB-75 CNS): > 100 µM
TGI (SN12C renal): > 100 µM
TGI (OVCAR-3 ovarian): > 100 µM
TGI (DU-145 prostate): > 100 µM

COc1cccc2cc(N(C)c3nc(C)nc4ccsc34)ccc12
GI50 (COLO 205 colon): < 0.01 µM
GI50 (NCI-H226 lung): < 0.015 µM
TGI (NCI-H226 lung): 19.8 µM
GI50 (A498 renal): < 0.01 µM
TGI (A498 renal): < 0.015 µM
GI50 (SW-620 colon): < 0.01 µM
TGI (SW-620 colon): 16.6 µM
GI50 (EKVX NSCLC): < 0.01 µM
TGI (EKVX NSCLC): 21.1 µM
GI50 (MDA-MB-231 breast): < 0.01 µM
TGI (MDA-MB-231 breast): 15 µM
GI50 (SNB-75 CNS): < 0.01 µM
TGI (SNB-75 CNS): 5.3 µM
GI50 (SN12C renal): < 0.01 µM
TGI (SN12C renal): 15 µM
GI50 (OVCAR-3 ovarian): < 0.01 µM
GI50 (DU-145 prostate): < 0.01 µM
TGI (DU-145 prostate): 10.6 µM

COc1cc2c(cc1-c1c(C)noc1C)ncc1[nH]c(=O)n([C@H](C)c3ccccn3)c12
GI50 (COLO 205 colon): 0.241 µM
TGI (COLO 205 colon): > 35.6 µM
GI50 (NCI-H226 lung): 12.1 µM
TGI (NCI-H226 lung): > 100 µM
GI50 (A498 renal): 1.55 µM
TGI (A498 renal): 13.1 µM
GI50 (SW-620 colon): 28.1 µM
TGI (SW-620 colon): > 100 µM
GI50 (MDA-MB-231 breast): 0.528 µM
TGI (MDA-MB-231 breast): > 100 µM
GI50 (SNB-75 CNS): < 0.0379 µM
TGI (SNB-75 CNS): > 43.7 µM
GI50 (SN12C renal): 4.48 µM
TGI (SN12C renal): > 100 µM
GI50 (OVCAR-3 ovarian): 1.05 µM
TGI (OVCAR-3 ovarian): > 47.9 µM
GI50 (DU-145 prostate): 17.3 µM
TGI (DU-145 prostate): > 100 µM

Cc1cccc2cc3ccc4ccccc4c3cc12
TGI (COLO 205 colon): 39 µM
TGI (NCI-H226 lung): > 100 µM
TGI (A498 renal): > 100 µM
TGI (SW-620 colon): > 100 µM
TGI (EKVX NSCLC): 78.3 µM
TGI (MDA-MB-231 breast): > 100 µM
TGI (SNB-75 CNS): > 100 µM
TGI (SN12C renal): > 100 µM
TGI (OVCAR-3 ovarian): > 100 µM
TGI (DU-145 prostate): > 100 µM

O=C(Nc1ccc([N+](=O)[O-])cc1)c1cc2ccccc2cc1O
GI50 (COLO 205 colon): 2.47 µM
TGI (COLO 205 colon): 6.41 µM
GI50 (NCI-H226 lung): 0.503 µM
TGI (NCI-H226 lung): 5.37 µM
GI50 (A498 renal): 0.197 µM
TGI (A498 renal): 0.628 µM
GI50 (SW-620 colon): 0.477 µM
TGI (SW-620 colon): > 27.5 µM
GI50 (EKVX NSCLC): 0.322 µM
TGI (EKVX NSCLC): 3 µM
GI50 (MDA-MB-231 breast): 0.413 µM
TGI (MDA-MB-231 breast): 1.89 µM
GI50 (SNB-75 CNS): 0.538 µM
TGI (SNB-75 CNS): 4.07 µM
GI50 (SN12C renal): 0.348 µM
TGI (SN12C renal): 5.92 µM
GI50 (OVCAR-3 ovarian): 0.397 µM
TGI (OVCAR-3 ovarian): 15.8 µM
GI50 (DU-145 prostate): 0.484 µM
TGI (DU-145 prostate): > 100 µM

CCCCc1oc2ccccc2c1C(=O)c1cc(I)c(OCCN(CC)CC)c(I)c1
GI50 (COLO 205 colon): 1.89 µM
TGI (COLO 205 colon): 3.4 µM and 7.84 µM
GI50 (NCI-H226 lung): 2.84 µM
TGI (NCI-H226 lung): 12.7 µM and 8.55 µM
TGI (A498 renal): 14.3 µM
GI50 (SW-620 colon): 1.76 µM
TGI (SW-620 colon): 4.13 µM and 9.18 µM
GI50 (EKVX NSCLC): 2.86 µM
TGI (EKVX NSCLC): 14.8 µM and 47.1 µM
GI50 (MDA-MB-231 breast): 2 µM
TGI (MDA-MB-231 breast): 5.18 µM
GI50 (SNB-75 CNS): 1.92 µM
TGI (SNB-75 CNS): 10.9 µM and 22.9 µM
GI50 (SN12C renal): 3.08 µM
TGI (SN12C renal): 14.8 µM and 27.9 µM
GI50 (OVCAR-3 ovarian): 3.69 µM
TGI (OVCAR-3 ovarian): 14.7 µM and 16.9 µM
GI50 (DU-145 prostate): 5.28 µM
TGI (DU-145 prostate): 17.8 µM

COc1cc(C(=O)/C=C/c2c(-c3cccs3)nc3ccccn23)cc(OC)c1OC
GI50 (COLO 205 colon): 1.77 µM
TGI (COLO 205 colon): 3.2 µM
GI50 (NCI-H226 lung): 2.04 µM
TGI (NCI-H226 lung): 4.3 µM
GI50 (A498 renal): 0.987 µM
TGI (A498 renal): > 100 µM
GI50 (EKVX NSCLC): 3.12 µM
TGI (EKVX NSCLC): > 100 µM
GI50 (MDA-MB-231 breast): 3.08 µM
TGI (MDA-MB-231 breast): 26.2 µM
GI50 (SNB-75 CNS): 2.68 µM
TGI (SNB-75 CNS): 10.2 µM
GI50 (SN12C renal): 2.44 µM
TGI (SN12C renal): 27 µM
GI50 (OVCAR-3 ovarian): 2.44 µM
TGI (OVCAR-3 ovarian): 5.36 µM
GI50 (DU-145 prostate): 1.9 µM
TGI (DU-145 prostate): 4.81 µM

O=C1/C(=C/c2ccc(C(F)(F)F)cc2)COc2ccc(O)cc21
GI50 (COLO 205 colon): 2.47 µM
TGI (COLO 205 colon): 5.83 µM
GI50 (NCI-H226 lung): 2.53 µM
TGI (NCI-H226 lung): 8.21 µM
GI50 (A498 renal): 11.6 µM
TGI (A498 renal): 24 µM
GI50 (SW-620 colon): 1.71 µM
TGI (SW-620 colon): 3.4 µM
GI50 (EKVX NSCLC): 10.7 µM
TGI (EKVX NSCLC): 22.5 µM
GI50 (MDA-MB-231 breast): 2.36 µM
TGI (MDA-MB-231 breast): 5.65 µM
GI50 (SNB-75 CNS): 13.9 µM
TGI (SNB-75 CNS): 27.8 µM
GI50 (SN12C renal): 1.73 µM
TGI (SN12C renal): 3.46 µM
GI50 (OVCAR-3 ovarian): 1.7 µM
TGI (OVCAR-3 ovarian): 3.09 µM
GI50 (DU-145 prostate): 3.23 µM
TGI (DU-145 prostate): 12 µM

CO[C@H]1/C=C/C[C@H](C)[C@@H](C)S(=O)(=O)NC(=O)c2ccc3c(c2)N(C[C@@H]2CC[C@H]21)C[C@@]1(CCCc2cc(Cl)ccc21)CO3
GI50 (COLO 205 colon): 2.7 µM
TGI (COLO 205 colon): 6.6 µM
GI50 (NCI-H226 lung): 2.66 µM
TGI (NCI-H226 lung): 7.4 µM
GI50 (A498 renal): 1.45 µM
TGI (A498 renal): 3.47 µM
GI50 (SW-620 colon): 2.84 µM
TGI (SW-620 colon): 10.3 µM
GI50 (EKVX NSCLC): 1.91 µM
TGI (EKVX NSCLC): 6.76 µM
GI50 (MDA-MB-231 breast): 2.11 µM
TGI (MDA-MB-231 breast): 5.64 µM
GI50 (SNB-75 CNS): 1.34 µM
TGI (SNB-75 CNS): 3.03 µM
GI50 (SN12C renal): 2.37 µM
TGI (SN12C renal): 6.63 µM
GI50 (OVCAR-3 ovarian): 1.9 µM
TGI (OVCAR-3 ovarian): 3.75 µM
GI50 (DU-145 prostate): 4.56 µM
TGI (DU-145 prostate): 15.3 µM

NC(N)=N/N=C(/c1ccccc1)c1ccc(O)cc1O
TGI (COLO 205 colon): 33.2 µM
TGI (NCI-H226 lung): > 100 µM
TGI (A498 renal): 61.7 µM
TGI (SW-620 colon): > 100 µM
TGI (EKVX NSCLC): 64.7 µM
TGI (MDA-MB-231 breast): > 100 µM
TGI (SNB-75 CNS): > 100 µM
TGI (SN12C renal): 91 µM
TGI (OVCAR-3 ovarian): > 100 µM
TGI (DU-145 prostate): > 100 µM

CN(C)CCN1C(=O)c2cccc3c(-c4ccc5ncn(C6CCCCC6)c5c4)ccc(c23)C1=O
GI50 (COLO 205 colon): 1.21 µM
TGI (COLO 205 colon): 4.14 µM
GI50 (NCI-H226 lung): 2.32 µM
TGI (NCI-H226 lung): 7.78 µM
GI50 (A498 renal): 2.15 µM
TGI (A498 renal): 5.1 µM
GI50 (SW-620 colon): 1.06 µM
TGI (SW-620 colon): 11 µM
GI50 (EKVX NSCLC): 2.05 µM
TGI (EKVX NSCLC): 7.73 µM
GI50 (MDA-MB-231 breast): 2.18 µM
TGI (MDA-MB-231 breast): 9.78 µM
GI50 (SNB-75 CNS): 1.78 µM
TGI (SNB-75 CNS): 10.8 µM
GI50 (SN12C renal): 1.03 µM
TGI (SN12C renal): 12.1 µM
GI50 (OVCAR-3 ovarian): 2.28 µM
TGI (OVCAR-3 ovarian): 8.78 µM
GI50 (DU-145 prostate): 3.14 µM
TGI (DU-145 prostate): 13.5 µM
